Reference: article PMC7026418, “The kinase polypharmacology landscape of clinical PARP inhibitors” (Scientific Reports, 2020)
Where two headings read alike, the source gives them in different places. Each block holds one compound with its values, some of them ahead of it.

Experiments:
Assay in all cases: biochemical
Set-up in all cases: DiscoveRx KINOMEscan active site-directed competition binding; percent of control kinase bound to immobilised ligand
[1] = target: AKT3 (Homo sapiens, UniProt Q9Y243)
Chain of AKT3 (Q9Y243 whole entry): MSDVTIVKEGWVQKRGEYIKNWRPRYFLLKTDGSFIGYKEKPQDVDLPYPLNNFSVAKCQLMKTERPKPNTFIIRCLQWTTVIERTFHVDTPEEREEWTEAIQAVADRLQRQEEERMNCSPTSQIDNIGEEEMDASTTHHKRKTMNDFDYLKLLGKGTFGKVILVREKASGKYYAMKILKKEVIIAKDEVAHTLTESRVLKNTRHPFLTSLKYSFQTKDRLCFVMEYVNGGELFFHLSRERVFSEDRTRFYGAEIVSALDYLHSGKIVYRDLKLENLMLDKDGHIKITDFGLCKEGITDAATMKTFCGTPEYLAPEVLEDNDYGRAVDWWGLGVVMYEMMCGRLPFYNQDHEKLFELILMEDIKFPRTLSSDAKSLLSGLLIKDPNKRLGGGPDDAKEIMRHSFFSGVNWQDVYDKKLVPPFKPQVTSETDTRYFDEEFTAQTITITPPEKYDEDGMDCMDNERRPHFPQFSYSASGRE

[2] = target: T1, AURKC (Homo sapiens, UniProt Q9UQB9)
T1 sequence (Q9UQB9 1-309): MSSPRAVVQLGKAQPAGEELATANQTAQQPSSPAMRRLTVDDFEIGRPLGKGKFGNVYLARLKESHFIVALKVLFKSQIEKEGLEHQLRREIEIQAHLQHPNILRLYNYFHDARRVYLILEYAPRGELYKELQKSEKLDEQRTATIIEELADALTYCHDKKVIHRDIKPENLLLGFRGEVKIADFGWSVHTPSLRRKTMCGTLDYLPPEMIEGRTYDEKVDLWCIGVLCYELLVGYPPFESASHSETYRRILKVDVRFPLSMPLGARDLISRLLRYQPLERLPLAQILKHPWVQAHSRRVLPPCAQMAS

[3] = target: CSNK1A1 (Homo sapiens, UniProt P48729)
Chain of CSNK1A1 (P48729 whole entry): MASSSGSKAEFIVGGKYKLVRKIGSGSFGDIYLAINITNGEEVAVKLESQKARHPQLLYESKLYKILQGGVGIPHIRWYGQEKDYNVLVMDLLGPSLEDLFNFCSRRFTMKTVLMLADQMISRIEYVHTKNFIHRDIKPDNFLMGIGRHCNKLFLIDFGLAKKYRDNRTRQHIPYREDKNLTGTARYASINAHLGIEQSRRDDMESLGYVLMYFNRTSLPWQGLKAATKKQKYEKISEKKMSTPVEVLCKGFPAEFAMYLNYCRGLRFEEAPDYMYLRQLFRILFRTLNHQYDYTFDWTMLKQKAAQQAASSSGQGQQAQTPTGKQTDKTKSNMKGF

[4] = target: T2, GRK3 (Homo sapiens, UniProt P35626)
T2 sequence (P35626 1-688): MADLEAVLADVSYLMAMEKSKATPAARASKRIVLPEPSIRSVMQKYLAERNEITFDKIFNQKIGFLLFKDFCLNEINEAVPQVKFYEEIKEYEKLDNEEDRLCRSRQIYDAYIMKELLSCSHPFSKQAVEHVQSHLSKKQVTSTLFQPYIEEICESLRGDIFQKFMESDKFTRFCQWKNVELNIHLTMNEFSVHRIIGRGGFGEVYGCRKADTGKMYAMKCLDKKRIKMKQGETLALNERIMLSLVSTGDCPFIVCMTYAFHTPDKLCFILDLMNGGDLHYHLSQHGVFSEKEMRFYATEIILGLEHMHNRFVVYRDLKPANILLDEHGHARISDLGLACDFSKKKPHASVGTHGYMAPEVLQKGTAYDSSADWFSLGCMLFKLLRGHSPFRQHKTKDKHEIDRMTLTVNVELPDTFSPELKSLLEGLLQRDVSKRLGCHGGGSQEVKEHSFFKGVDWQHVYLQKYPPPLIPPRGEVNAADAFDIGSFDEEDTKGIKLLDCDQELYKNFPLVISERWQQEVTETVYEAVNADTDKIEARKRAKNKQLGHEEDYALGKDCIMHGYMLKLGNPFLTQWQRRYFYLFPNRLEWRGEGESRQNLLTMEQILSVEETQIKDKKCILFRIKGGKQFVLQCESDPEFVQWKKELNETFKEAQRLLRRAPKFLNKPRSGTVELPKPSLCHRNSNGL

[5] = target: KIT (Homo sapiens, UniProt P10721)
Chain of KIT (P10721 whole entry): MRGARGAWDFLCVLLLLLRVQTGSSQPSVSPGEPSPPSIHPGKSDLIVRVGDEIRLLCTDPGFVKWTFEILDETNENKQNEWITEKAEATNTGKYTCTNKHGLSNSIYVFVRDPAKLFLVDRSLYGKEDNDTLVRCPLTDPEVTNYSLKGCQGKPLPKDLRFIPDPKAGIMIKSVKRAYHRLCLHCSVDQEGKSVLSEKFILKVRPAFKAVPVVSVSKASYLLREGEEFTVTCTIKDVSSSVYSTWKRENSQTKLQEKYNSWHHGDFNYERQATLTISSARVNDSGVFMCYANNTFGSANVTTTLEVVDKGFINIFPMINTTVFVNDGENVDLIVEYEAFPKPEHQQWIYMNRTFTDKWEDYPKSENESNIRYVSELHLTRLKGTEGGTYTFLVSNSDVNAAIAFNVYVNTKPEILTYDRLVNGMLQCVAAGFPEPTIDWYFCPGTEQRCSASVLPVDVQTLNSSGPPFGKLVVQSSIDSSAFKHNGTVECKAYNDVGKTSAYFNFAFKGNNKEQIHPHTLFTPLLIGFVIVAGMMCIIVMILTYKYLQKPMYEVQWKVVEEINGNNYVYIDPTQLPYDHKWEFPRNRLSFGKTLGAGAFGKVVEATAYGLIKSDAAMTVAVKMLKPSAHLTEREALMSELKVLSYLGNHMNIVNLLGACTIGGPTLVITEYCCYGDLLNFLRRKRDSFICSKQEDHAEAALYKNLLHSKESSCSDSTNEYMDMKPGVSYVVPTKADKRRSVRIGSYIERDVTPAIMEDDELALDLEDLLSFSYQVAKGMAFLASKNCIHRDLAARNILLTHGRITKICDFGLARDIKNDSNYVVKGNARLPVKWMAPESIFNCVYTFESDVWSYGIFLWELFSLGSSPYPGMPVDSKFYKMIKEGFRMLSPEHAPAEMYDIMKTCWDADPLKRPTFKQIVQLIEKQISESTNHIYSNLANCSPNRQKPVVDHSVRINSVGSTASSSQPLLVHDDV

[6] = target: T3, MAP4K2 (Homo sapiens, UniProt Q12851)
T3 sequence (Q12851 1-820): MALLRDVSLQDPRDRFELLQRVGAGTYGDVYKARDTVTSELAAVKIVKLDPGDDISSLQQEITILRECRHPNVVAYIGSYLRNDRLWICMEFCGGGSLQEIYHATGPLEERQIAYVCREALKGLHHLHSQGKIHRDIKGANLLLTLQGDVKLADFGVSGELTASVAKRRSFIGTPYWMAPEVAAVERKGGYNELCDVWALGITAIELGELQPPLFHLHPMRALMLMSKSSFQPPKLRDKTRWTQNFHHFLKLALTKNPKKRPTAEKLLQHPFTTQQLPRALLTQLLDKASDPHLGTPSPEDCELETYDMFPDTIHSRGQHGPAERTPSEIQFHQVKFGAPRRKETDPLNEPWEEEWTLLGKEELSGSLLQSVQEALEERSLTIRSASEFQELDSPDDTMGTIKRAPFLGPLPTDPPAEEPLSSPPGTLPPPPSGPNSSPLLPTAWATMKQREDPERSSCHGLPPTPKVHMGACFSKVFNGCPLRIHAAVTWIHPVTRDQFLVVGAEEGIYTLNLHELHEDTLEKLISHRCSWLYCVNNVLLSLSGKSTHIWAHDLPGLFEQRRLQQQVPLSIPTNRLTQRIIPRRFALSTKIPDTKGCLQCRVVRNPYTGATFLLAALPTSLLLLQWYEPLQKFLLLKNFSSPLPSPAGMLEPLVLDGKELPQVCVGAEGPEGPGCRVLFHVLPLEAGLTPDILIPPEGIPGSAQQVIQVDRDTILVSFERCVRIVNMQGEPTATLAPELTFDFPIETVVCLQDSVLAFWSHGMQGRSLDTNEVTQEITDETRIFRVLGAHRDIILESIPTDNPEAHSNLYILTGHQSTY

[7] = target: T4, PAK7 (Homo sapiens, UniProt Q9P286)
T4 construct: gene PAK5
T4 sequence (Q9P286 whole entry): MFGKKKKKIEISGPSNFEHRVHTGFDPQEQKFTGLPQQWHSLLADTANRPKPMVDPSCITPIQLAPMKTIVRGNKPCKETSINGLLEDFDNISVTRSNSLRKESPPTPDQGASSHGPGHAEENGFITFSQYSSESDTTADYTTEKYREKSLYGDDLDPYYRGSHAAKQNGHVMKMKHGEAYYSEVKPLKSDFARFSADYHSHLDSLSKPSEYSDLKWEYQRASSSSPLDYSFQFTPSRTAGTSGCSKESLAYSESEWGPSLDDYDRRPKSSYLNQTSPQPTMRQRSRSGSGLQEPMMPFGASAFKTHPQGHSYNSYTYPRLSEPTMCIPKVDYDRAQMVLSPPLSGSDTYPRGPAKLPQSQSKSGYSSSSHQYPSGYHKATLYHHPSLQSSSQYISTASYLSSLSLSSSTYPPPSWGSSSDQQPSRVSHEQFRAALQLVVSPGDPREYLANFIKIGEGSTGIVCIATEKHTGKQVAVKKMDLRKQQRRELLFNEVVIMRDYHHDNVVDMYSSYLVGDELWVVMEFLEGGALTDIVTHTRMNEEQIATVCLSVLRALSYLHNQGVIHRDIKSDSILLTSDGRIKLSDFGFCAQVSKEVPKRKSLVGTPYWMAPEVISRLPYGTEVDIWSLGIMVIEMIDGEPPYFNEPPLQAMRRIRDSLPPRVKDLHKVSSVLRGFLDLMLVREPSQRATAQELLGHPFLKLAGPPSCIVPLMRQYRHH

[8] = target: T5, PCTK3 (Homo sapiens, UniProt Q07002)
T5 construct: gene CDK18
T5 sequence (Q07002 whole entry): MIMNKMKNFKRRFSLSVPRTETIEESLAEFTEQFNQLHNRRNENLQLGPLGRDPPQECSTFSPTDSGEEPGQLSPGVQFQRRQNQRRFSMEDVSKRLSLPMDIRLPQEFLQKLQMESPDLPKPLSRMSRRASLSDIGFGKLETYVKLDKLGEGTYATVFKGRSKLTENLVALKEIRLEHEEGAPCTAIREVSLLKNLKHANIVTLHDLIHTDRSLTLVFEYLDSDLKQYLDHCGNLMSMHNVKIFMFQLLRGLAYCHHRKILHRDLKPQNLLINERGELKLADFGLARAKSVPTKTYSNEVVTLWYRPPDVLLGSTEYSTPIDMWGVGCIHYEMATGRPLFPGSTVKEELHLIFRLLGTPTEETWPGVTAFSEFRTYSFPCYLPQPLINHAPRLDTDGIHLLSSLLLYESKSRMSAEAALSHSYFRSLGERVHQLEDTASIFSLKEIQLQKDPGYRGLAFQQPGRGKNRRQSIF

[9] = target: T6, RSK3(Kin.Dom.1-N-terminal) (Homo sapiens, UniProt Q15349)
T6 construct: gene RPS6KA2; Kin.Dom.1-N-terminal
T6 sequence (Q15349 whole entry): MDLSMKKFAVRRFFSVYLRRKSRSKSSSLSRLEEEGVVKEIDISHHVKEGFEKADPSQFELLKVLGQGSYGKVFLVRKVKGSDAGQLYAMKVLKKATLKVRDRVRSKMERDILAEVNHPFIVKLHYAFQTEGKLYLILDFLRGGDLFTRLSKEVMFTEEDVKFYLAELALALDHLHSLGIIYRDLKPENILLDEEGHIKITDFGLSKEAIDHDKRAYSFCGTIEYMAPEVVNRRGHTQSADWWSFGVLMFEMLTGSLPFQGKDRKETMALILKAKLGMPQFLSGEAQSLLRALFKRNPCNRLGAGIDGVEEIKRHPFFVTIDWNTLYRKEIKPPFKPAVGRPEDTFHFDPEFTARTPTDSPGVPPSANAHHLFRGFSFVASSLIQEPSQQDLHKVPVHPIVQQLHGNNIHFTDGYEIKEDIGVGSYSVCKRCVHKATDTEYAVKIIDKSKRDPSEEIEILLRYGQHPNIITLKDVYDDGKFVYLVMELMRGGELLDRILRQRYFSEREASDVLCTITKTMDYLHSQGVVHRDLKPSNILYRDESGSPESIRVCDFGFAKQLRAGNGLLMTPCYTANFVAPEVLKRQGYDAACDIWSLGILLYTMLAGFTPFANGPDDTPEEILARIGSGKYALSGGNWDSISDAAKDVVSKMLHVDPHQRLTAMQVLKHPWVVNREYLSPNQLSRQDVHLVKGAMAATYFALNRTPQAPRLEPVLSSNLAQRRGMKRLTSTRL

[10] = target: T7, ZAK (Homo sapiens, UniProt Q9NYL2)
T7 construct: gene MAP3K20
T7 sequence (Q9NYL2 whole entry): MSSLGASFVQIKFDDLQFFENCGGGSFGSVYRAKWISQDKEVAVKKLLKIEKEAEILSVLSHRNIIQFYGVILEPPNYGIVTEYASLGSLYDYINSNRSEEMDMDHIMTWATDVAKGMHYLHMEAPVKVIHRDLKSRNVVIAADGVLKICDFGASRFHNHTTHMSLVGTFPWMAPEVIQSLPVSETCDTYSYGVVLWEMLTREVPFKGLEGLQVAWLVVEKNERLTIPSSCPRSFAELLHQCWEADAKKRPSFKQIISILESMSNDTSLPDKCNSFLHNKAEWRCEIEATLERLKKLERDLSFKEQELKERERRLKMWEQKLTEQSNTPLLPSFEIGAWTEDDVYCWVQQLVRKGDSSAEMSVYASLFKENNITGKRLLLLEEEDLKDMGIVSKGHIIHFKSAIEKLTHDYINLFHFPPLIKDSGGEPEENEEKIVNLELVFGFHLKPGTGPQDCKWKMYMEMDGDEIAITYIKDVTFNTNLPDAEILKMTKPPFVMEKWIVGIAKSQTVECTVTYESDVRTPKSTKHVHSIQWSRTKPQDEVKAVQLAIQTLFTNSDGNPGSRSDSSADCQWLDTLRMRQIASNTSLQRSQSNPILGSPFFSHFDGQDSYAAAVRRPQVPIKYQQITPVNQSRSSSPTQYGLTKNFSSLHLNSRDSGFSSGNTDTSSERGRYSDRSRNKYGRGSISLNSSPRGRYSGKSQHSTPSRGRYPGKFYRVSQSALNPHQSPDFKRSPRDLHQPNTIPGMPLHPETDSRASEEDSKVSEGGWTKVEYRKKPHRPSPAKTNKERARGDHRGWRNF

[11] = read-out: Niraparib (MK-4827) / %Ctrl @ 10000nM
[12] = read-out: Olaparib / %Ctrl @ 10000nM
[13] = read-out: Rucaparib / %Ctrl @ 10000nM, binding competition, % of control
[14] = read-out: Talazoparib (BMN 673) / %Ctrl @ 10000nM

Structure (SMILES): NC(=O)c1cccc2cn(-c3ccc([C@@H]4CCCNC4)cc3)nc12 [Niraparib]
percent of control binding at 10 µM [1, 11]: 97%
percent of control binding at 10 µM [2, 11]: 56%
percent of control binding at 10 µM [3, 11]: 34%
percent of control binding at 10 µM [4, 11]: 95%
percent of control binding at 10 µM [5, 11]: 87%
percent of control binding at 10 µM [6, 11]: 83%
percent of control binding at 10 µM [7, 11]: 86%
percent of control binding at 10 µM [8, 11]: 70%
percent of control binding at 10 µM [9, 11]: 74%
percent of control binding at 10 µM [10, 11]: 88%

percent of control binding at 10 µM [1, 12]: 100%
percent of control binding at 10 µM [2, 12]: 97%
percent of control binding at 10 µM [3, 12]: 81%
percent of control binding at 10 µM [4, 12]: 82%
percent of control binding at 10 µM [5, 12]: 99%
percent of control binding at 10 µM [6, 12]: 97%
percent of control binding at 10 µM [7, 12]: 100%
percent of control binding at 10 µM [8, 12]: 100%
percent of control binding at 10 µM [9, 12]: 97%
percent of control binding at 10 µM [10, 12]: 94%
Structure (SMILES): O=C(c1cc(Cc2n[nH]c(=O)c3ccccc23)ccc1F)N1CCN(C(=O)C2CC2)CC1 [Olaparib]

percent of control binding at 10 µM [1, 13]: 100%
percent of control binding at 10 µM [2, 13]: 78%
percent of control binding at 10 µM [3, 13]: 39%
percent of control binding at 10 µM [4, 13]: 90%
percent of control binding at 10 µM [5, 13]: 100%
percent of control binding at 10 µM [6, 13]: 79%
percent of control binding at 10 µM [7, 13]: 86%
percent of control binding at 10 µM [8, 13]: 69%
percent of control binding at 10 µM [9, 13]: 99%
percent of control binding at 10 µM [10, 13]: 93%
Structure (SMILES): CNCc1ccc(-c2[nH]c3cc(F)cc4c3c2CCNC4=O)cc1 [Rucaparib]

percent of control binding at 10 µM [1, 14]: 88%
percent of control binding at 10 µM [2, 14]: 100%
percent of control binding at 10 µM [3, 14]: 73%
percent of control binding at 10 µM [4, 14]: 81%
percent of control binding at 10 µM [5, 14]: 100%
percent of control binding at 10 µM [6, 14]: 94%
percent of control binding at 10 µM [7, 14]: 100%
percent of control binding at 10 µM [8, 14]: 99%
percent of control binding at 10 µM [9, 14]: 84%
percent of control binding at 10 µM [10, 14]: 97%
Structure (SMILES): Cn1ncnc1[C@H]1c2n[nH]c(=O)c3cc(F)cc(c23)N[C@@H]1c1ccc(F)cc1 [Talazoparib]
